How the values were obtained:
normotensive rats [1] = experiment: Femoral mean arterial pressure after sublingual administration in normotensive rats; format: in vivo; conditions: 0.2, 0.4 or 0.8 mg nitrite/kg with 10 mg NAC
Protocol: Normotensive rats were anesthetized with isoflurane. The femoral artery was catheterized with a Micro-Tip Catheter Transducer (AD Instruments, Houston, TX) for monitoring of blood pressure. Once the baseline blood pressure was stabilized, at approximately 30 minutes, rats were treated sublingually with 50 μL of SNOAC generated by reacting 0.2 mg, 0.4 mg, or 0.8 mg nitrite/kg body weight with a fixed concentration of 10 mg NAC (FIG. 5). Control rats were treated with nitrite or NAC alone. The mean arterial pressure (MAP) was continually monitored.

normotensive rats [2] = experiment: Mean arterial pressure after oral gavage in normotensive rats; format: in vivo; conditions: 0.5 mL
Protocol: The mean arterial pressure (MAP) was continually monitored.
The MAP in rats was measured as described for sublingual administration. After baseline blood pressure was measured, 0.5 mL of nitrite alone, NAC alone, or the nitrite−NAC mixture was administered by gavage.

[3] = Plasma and organ RSNOs after oral gavage of nitrite in neutral NAC; format: in vivo, rats; conditions: single agent alone, nitrite 1.5 mg/kg, NAC 50 mg/kg
Protocol: […] BP was measured by femoral intra-arterial catheterization. Chronic studies were carried out in an L-NAME (eNOS inhibitor) induced hypertensive mouse model. Mice were randomized into five groups 1) control, 2) control L-NAME (0.1 g/L), 3) L-NAME+nitrite (20 mg/L), 4) L-NAME+nitrite (10 mg/L)+NAC (0.5 g/L), 5) L-NAME+nitrite (20 mg/L)+NAC 0.5 g/L) in drinking water for 2 months. Plasma S-nitrosothiols blood pressure (tail cuff method), arterial stiffness (Doppler method) were determined.

[4] = system: rats with severe Sugen-hypoxia-induced pulmonary hypertension; experiment: Right ventricular systolic pressure (RVSP) after inhaled aerosol in Sugen-hypoxia pulmonary hypertension rats; format: in vivo, Sprague Dawley rats
Protocol: Stock SNOAC was prepared by reacting an appropriate amount of sodium nitrite and NAC in water just before use. The pH was adjusted to 7.0 with alkaline solution and then transferred to an Aeroneb Nebulizer (Kent Scientific). Severe PH was induced in Sprague Dawley rats by subcutaneous injection of vascular endothelial growth factor receptor antagonist Sugen 5416 followed by exposure to hypoxia (10% O2) for 3 weeks and normoxia for 4 weeks. Right ventricular systolic pressure (RVSP) was measured invasively in a closed-chest, spontaneously breathing rat model as an indicator of pulmonary arterial pressure. Rats were anesthetized with 1.5% isoflurane in air with a flow rate of 2 L/min. A blood pressure catheter was inserted into the right ventricle through the jugular vein, and baseline RVSP was measured. After the pressure stabilized, the aerosolized drug was introduced into the isoflurane line for 5 minutes.

[5] = system: Spontaneously Hypertensive Rats (SHR); experiment: Tail-cuff MAP in SHR and WKY rats, drinking water; format: in vivo; conditions: NAC 1.2 g/L, nitrite 60 mg/L in drinking water, end of 3 months, versus SHR control
Protocol: SHR rats are a well-established model used to study essential hypertension. Normotensive Wistar Kyoto rats (WKY) were used as a control group. Rats were fed with NAC (1.2 g/L), nitrite (60 mg/L), or a combination of the two in drinking water for 3 months. Mean arterial blood pressure was measured by the tail-cuff method once each month.

[6] = system: mice with L-NAME-induced systemic hypertension; experiment: L-NAME-induced systemic hypertension in mice, drinking water; format: in vivo; conditions: L-NAME-treated mice, NAC 0.5 g/L or nitrite 20 mg/L alone, 2 months
Protocol: L-NAME (N-nitro-L-arginine methyl ester) is an inhibitor of eNOS enzyme activity. Administering L-NAME in the drinking water of animals induces systemic hypertension by decreasing NO synthesis in blood vessels. In this study, mice were fed L-NAME alone (0.1 g/L) or L-NAME+NAC (0.5 g/L), L-NAME+nitrite (20 mg/L), or L-NAME+NAC with one of two nitrite doses (i.e., 10 mg/L or 20 mg/L) in drinking water for 2 months. Mean arterial blood pressure was measured by the tail-cuff method (Kent Scientific, Torrington, CT).
Acute doses of nitrite (0.1 to 1 mg/kg B. wt.) or NAC (10 to 50 mg/kg B. wt.) alone or in combination were administered sublingually or by oral gavage to anesthetized Wistar rats and blood collected at varying time points for measurement of total plasma SNOs by chemiluminescence method. BP was measured by femoral intra-arterial catheterization. Chronic studies were carried out in an L-NAME (eNOS inhibitor) induced hypertensive mouse model. Mice were randomized into five groups 1) control, 2) control L-NAME (0.1 g/L), 3) L-NAME+nitrite (20 mg/L), 4) L-NAME+nitrite (10 mg/L)+NAC (0.5 g/L), 5) L-NAME+nitrite (20 mg/L)+NAC 0.5 g/L) in drinking water for 2 months. Plasma S-nitrosothiols blood pressure (tail cuff method), arterial stiffness (Doppler method) were determined.

eNOS^-/- mice = experiment: Tail-cuff MAP in eNOS-/- hypertensive mice, drinking water; format: in vivo; conditions: nitrite 50 mg/L, NAC 500 mg/L in drinking water for 2 months, versus eNOS-/- control
Protocol: 15-week-old wild-type (WT) and eNOS^-/- mice were divided into 5 groups. (1) WT control, (2) eNOS^-/- control, (3) eNOS^-/-+nitrite, (4) eNOS^-/-+NAC, and (5) eNOS^-/-+nitrite+NAC. NAC was dissolved in the drinking water, and pH was adjusted to 7.0 to prevent initial nitrite reaction with NAC. The mice were given pharmacological doses of nitrite (50 mg/L) and NAC (500 mg/L) individually or in combination for 2 months.

[7] = system: angiotension-2—induced acute PH; experiment: Angiotensin-2-induced acute pulmonary hypertension in control rats; format: in vivo; conditions: inhalation
[8] = RSNO decomposition in water monitored by spectra; format: physicochemical; conditions: over 15 hours; from 15 mM sodium nitrite and 60 mM N-acetylcysteine in water
Protocol: FIG. 11 is a graphical representation of generation and decomposition of S-nitroso-N-acetylcysteine (RSNO). In the left panel, RSNO generation is show when 15 mM sodium nitrite is reacted with 60 mM N-acetylcysteine (RSH) in water. All nitrite is converted instantly to RSNO. In the right panel, RSNO decomposition is monitored by recording spectra at 1.5 hour intervals over 15 hours. Approximately 50% of the RSNO was decomposed over the 15 hours.
Nitrite is converted to […] by reacting with RSH in water. RSNOs have potent vasodilatory, anti-inflammatory, and antiplatelet activities. As shown by the comparison of generation of RSNO in FIG. 11, left panel, with degradation in FIG. 11, right panel, the instability of RSNO after preparation is a major hindrance to use them as NO donors to restore the NO bio-availability that decrease with aging and pathophysiological conditions of cardiovascular diseases. Therefore, RSNOs have proven easy to prepare, but not typically stable after preparation.

[9] = Total S-nitrosothiols in blood after sublingual nitrite and NAC in mice; format: in vivo; conditions: 0.1 mg nitrite and 10 mg NAC
Protocol: FIG. 14 is a graphical representation of the transfer of the SNOAC that is generated in the sublingual space to blood circulation in mice. The concentration of total S-nitrosothiols at 1, 30 min., and 60 min. was determined after mice were sublingually administered 0.1 mg nitrite and 10 mg NAC in 50 μL of water, generating SNOAC.
In this study, the sublingual and buccal cavity medication route of SNOAC generation and administration for acute dosing was first examined. A dose of NAC and sodium nitrite with 25 μL of water was placed under the tongue of mice or rats. Specifically, a dose of 0.1 mg of nitrite and 10 mg of NAC was placed under the tongue of the subject, blood was collected varying time points, and total S-nitrosothiols (SNO) were measured by a chemiluminescence method. […] As shown in FIG. 14 for mice and FIG. 4 for rats, SNOAC is generated in the buccal cavity and absorbed into circulation.

cardiac proteins = experiment: SNO-RAC proteomics of rat heart tissue; format: in vivo, rats; conditions: single oral gavage dose, hearts collected after 1 hour
Protocol: FIG. 12 is a graphical representation of proteomics analysis of rat heart tissue. A single dose of nitrite and NAC at neutral pH were administered by oral gavage to rats. Rats were sacrificed after 1 hour and the hearts were collected. Total RSNO sites were identified using the a SNO-RAC (resin assisted capture) protocol. Proteomics was performed using liquid chromatography-tandem mass spectrometry (LC-MS/MS) analysis.

[10] = Plasma S-nitrosothiols and nitrite after sublingual SNOAC in rats; format: in vivo
Protocol: Because the chemicals cannot be placed in the buccal cavity of experimental animals, SNOAC was prepared in a test tube just before use and then placed in the sublingual space. Normotensive rats were anesthetized and the femoral artery was cannulated to collect blood. Stock SNOAC at 30 μmoles/mL was prepared by reacting sodium nitrite with NAC at the molar ratio of 1:2 in water just before use. It is believed that all of the nitrite is converted to SNOAC under these conditions. After baseline blood samples were collected in heparinized tubes, approximately 50 μL of SNOAC solution (0.4 mg nitrite and 1.87 mg NAC/kg body weight) was placed under the tongue of anesthetized rats. Blood was collected at 10-minute intervals. The plasma was separated, and nitrite and total S-nitrosothiols in plasma were determined. […] There was no change in plasma nitrite levels.
In this study, the sublingual and buccal cavity medication route of SNOAC generation and administration for acute dosing was first examined. A dose of NAC and sodium nitrite with 25 μL of water was placed under the tongue of mice or rats. Specifically, a dose of 0.1 mg of nitrite and 10 mg of NAC was placed under the tongue of the subject, blood was collected varying time points, and total S-nitrosothiols (SNO) were measured by a chemiluminescence method. […]

Row | Compound | mean arterial pressure (MAP) (normotensive rats [1]) | MAP (normotensive rats [2]) | effect on RVSP of inhaled precursor molecules alone ([4]; hypertensive rats) | MAP [5] | MAP [6] | MAP (eNOS^-/- mice) | RVSP course after cessation of inhalation ([4]; hypertensive rats) | also measured
1 | CC(=O)N[C@@H](CS)C(=O)O [NAC, N-acetylcysteine] | no change | neither nitrite nor NAC alone altered the blood pressure | no effect | modestly decreased | no significant change | no significant change | – | increase in plasma RSNOs [3]: no change
2 | CC(=O)N[C@@H](CSN=O)C(=O)O [SNOAC, S-nitroso-N-acetylcysteine] | – | – | – | – | – | – | slowly increased over the following 40 minutes, while still remaining lower than the baseline value | angiotensin-2-induced acute PH [7]: significantly decreased; RSNO decomposed [8]: Approximately 50%; RVSP change in control animals ([4]; control animals, baseline RVSP 30 mmHg): did not change significantly; RVSP after another dose of aerosolized drug after 40 minutes ([4]; hypertensive rats): sustained decrease in RVSP that was longer than after the initial dose; time the RVSP decrease was sustained at the same level after cessation of drug ([4]; hypertensive rats): 5 min; RVSP after inhalation of aerosolized drug ([4]; hypertensive rats, baseline RVSP 125 mmHg, inhalation for 5 minutes): 96 mmHg; total S-nitrosothiols (SNO) over time [9]: increased with increasing the time; S-nitrosylation of cardiac proteins (cardiac proteins): increased with increasing the dose of RSNO; plasma nitrite levels ([10]; after sublingual SNOAC): no change; total plasma S-nitrosothiols (SNO) over time ([10]; rats, sublingual): increased with increasing the time; life span (SNOAC life span): about 30 min
3 | O=NO [nitrite, sodium nitrite] | no change | neither nitrite nor NAC alone altered the blood pressure | no effect | no effect | no significant change | no significant change | – | effect on PH at higher doses ([4]; even at higher doses): No effect
4 | nitric oxide [NO gas] | – | – | – | – | – | – | rapidly bounced back to baseline after cessation | RVSP during inhalation of NO gas ([4]; hypertensive rats, 30 ppm inhaled for 5 minutes): rapid decrease in RVSP

Reference: patent US20240382443A1, “GENERATION OF S-NITROSOACETYLCYSTEINE” (The UAB Research Foundation, priority 2023, published 2024)
